Experimental data: patent US8716355B2, “Hydroxylated tolans and related compounds in the treatment of a cancer” (Kent State University, priority 2007, dated 2014)

Experiments:
prostate cancer = assay: Prostate cancer patients (Example VIII A); assay type: in vivo, human; conditions: daily 10 μg to 5 mg/Kg; no significant differences between the four groups
Protocol: A group of 40 men aged 55-75 suffering from prostate cancer receive a daily dosage of between 10 μg and 5 mg/Kg body weight of KST-201, KST-213, KST-301 or KST-401 (10 patients per compound). Examination of the patients by clinical, radiographic and histopathological tests show significant shrinkage in tumors, and signs of cell death in 38% of the patients; there are no significant differences between the four treatment groups.

colon cancer = assay: Colon cancer patients (Example VIII E); assay type: in vivo, human
Protocol: Eight patients suffering from advanced colon cancer are treated daily for three weeks with an intravenous infusion of 2 g of the compounds KST-201, KST-213, KST-301 or KST-401 dissolved in saline. Two patients are assigned to each compound. The compounds are dissolved in sterile saline. […] Progression of the tumor is also arrested over the treatment period.
Another eight patients with terminal colon cancer are treated by daily bolus injections (intravenous or intramuscular) of 2 g of KST-201, KST-213, KST-301 or KST-401.

ovarian cancer = assay: Ovarian cancer patients (Example VIII D); assay type: in vivo, human; conditions: daily gelatin capsule 200 mg
Protocol: A study is carried out in a group of 40 women with ovarian cancer of various grades to determine the effect of treatment with compounds of KST-201, KST-213, KST-301 and KST-401. The administration protocol involves daily administration of a gelatin capsule containing 200 mg of active compound.

bladder cancer = assay: Bladder cancer patients (Example VIII B); assay type: in vivo, human; conditions: intravenous 10 μg to 5 mg/kg over three months
Protocol: A group of 20 men and 20 women aged 50-75 with bladder cancer are treated by intravenous injection of between 10 μg and 5 mg/kg of KST-201, KST-213, KST-301 or KST-401. Each compound is given to a group of 5 men and 5 women) over a period of three months. Clinical, radiographic and histopathological tests show significant remission in 35% of patients, accompanied by signs of cell death in 45%. There are no significant differences between the results with the four compounds.

human recombinant COX-2 = target: T1, human recombinant COX-2 (Homo sapiens, UniProt P35354); assay: COX Inhibitor Screening Assay, COX2; assay type: biochemical; conditions: doses of 10 to 200 μM tested
T1 construct: purchased Cayman Chemical 560131
Excerpt: The Cayman COX Inhibitor Screening Assay includes both ovine COX-1 and human recombinant COX-2 enzymes in order to screen isozyme-specific inhibitors.

rat-organ homogenates = conditions: cited from earlier work
HSV-1 = system: HSV-1
Excerpt: FIG. 2. […] A 10% w/v solution of KST-301 in DMSO was applied topically to the epidermal infection site 3×/day for 5 days. Controls animals received the same volume of the DMSO vehicle at the same intervals. Lesions were scored as 0=no visible lesions, +1=papules around the infection site, +2=papules are ulcerated around the infection site with eschar formation, +3=ulcerated zosteriform spread along peripheral nerves to the flank of the animal, +4=ulcerated lesions open on the flank, and +5=death of the animal.
The lesions were scored as in the description for FIG. 2.

rat erythrocyte (RBC) = conditions: cited from earlier work
[1] = intravenous infusion 2 g daily for three weeks

T1 sequence (P35354 18-604): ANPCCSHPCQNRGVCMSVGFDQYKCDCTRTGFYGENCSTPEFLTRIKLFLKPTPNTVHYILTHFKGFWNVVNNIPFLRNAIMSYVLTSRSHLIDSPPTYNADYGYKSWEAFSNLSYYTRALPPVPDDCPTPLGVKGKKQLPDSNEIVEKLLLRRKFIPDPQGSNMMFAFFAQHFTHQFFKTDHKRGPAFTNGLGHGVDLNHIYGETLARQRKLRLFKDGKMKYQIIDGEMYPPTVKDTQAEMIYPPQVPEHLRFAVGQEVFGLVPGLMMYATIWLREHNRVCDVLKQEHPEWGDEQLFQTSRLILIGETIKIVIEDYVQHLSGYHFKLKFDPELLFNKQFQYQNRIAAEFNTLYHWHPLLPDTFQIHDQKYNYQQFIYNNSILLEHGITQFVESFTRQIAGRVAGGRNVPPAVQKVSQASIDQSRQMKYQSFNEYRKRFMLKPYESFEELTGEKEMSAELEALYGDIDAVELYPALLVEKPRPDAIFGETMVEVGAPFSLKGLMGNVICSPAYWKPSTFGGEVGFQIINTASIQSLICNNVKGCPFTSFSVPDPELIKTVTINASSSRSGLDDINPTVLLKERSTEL

Compound	Patients with significant shrinkage in tumors, and signs of cell death (prostate cancer) [%]	Dissemination of the tumors (colon cancer; daily bolus injections (intravenous or intramuscular) of 2 g)	Cancer marker carcinoembryonic antigen (CEA) (colon cancer; [1])	Progression of the tumor (colon cancer; [1])	Rate of production of ovarian cancer markers (Muc-1, Sp17) (ovarian cancer)	Tumor growth during study period (ovarian cancer)	Patients with signs of cell death (bladder cancer) [%]	Patients with significant remission (bladder cancer; no differences between compounds) [%]	Inhibition of COX2 activity (human recombinant COX-2)	Inhibition (%) of autooxidation MDA level at 7.5 μM, In rat brain (rat-organ homogenates; rat brain) [%]	Inhibition (%) of autooxidation MDA level at 7.5 μM, In rat kidney (rat-organ homogenates; rat kidney) [%]	Inhibition (%) of autooxidation MDA level at 7.5 μM, In rat liver (rat-organ homogenates; rat liver) [%]	Severity of HSV-1 lesions (HSV-1; 10% w/v solution in DMSO, topical 3×/day for 5 days, hairless mice)	Treated animals in which lesion formation was prevented (HSV-1; topical solution in DMSO)	Treated animals showing evidence of HSV infection (HSV-1; topical solution in DMSO, controls 83-100%) [%]	Maximum (average) lesion score (HSV-1; topical solution in DMSO, scale 0 to +5, controls 3.8-4 by days 8 and 9)	Inhibition (%) of RBC hemolysis induced by H2O2 at 4 μM (rat erythrocyte (RBC)) [%]
Oc1ccc(C#Cc2ccc(O)cc2)cc1 [KST-201, 4,4′-dihydroxytolan]	38	dissemination of the tumors is diminished	significant reduction	arrested	significant decrease	Tumors regress or show no further growth	45	35	about 50%								
Oc1ccc(/C=C/c2cc(O)cc(O)c2)cc1 [Resveratrol, 3,5,4′-trihydroxy-trans-stilbene, reference compound]										69.93	40.37	67.69	significantly reduced the severity of the lesions	57-67%	43	0.8-1.2	45.23
